{
  "source": "patent US12502440B2",
  "about": "“Cross-linking compounds and methods of use thereof” (North Carolina State University, priority 2019, dated 2025)",
  "target": "T1, β-glucosidase from Agrobacterium (Agrobacterium sp., UniProt P12614)",
  "T1 construct": "purchased Megazyme",
  "T1 sequence (P12614 1-459)": "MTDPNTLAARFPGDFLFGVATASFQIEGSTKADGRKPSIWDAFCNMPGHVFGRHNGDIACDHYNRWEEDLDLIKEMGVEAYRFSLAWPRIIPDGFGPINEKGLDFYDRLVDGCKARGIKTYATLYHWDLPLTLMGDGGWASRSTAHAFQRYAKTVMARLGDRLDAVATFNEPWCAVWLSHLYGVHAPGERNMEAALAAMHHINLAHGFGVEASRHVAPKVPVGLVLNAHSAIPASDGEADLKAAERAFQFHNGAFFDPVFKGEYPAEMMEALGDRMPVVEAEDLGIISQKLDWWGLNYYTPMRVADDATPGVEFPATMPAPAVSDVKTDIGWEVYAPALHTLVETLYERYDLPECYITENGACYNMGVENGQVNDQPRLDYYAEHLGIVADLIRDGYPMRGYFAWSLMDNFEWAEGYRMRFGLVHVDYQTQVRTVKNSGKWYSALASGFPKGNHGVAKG",
  "experiment": "Oligomerization of bis(indoxyl-glucoside) 46 with β-glucosidase from Agrobacterium",
  "assay_type": "biochemical",
  "settings": "precipitate from 300 μM of 46 suspended in H2O",
  "procedure": "Oligomerization of 46 was carried out by treatment with β-glucosidase from Agrobacterium (200 nM) in 10 mM phosphate buffer (pH 7) at 37° C. for 2-4 h (Scheme 9). Precipitation occurred during the reaction. After centrifugation, the precipitate was separated from the supernatant, washed with H2O, and dried to afford a blue solid.\nThe efficacy of the indigogenic oligomerization was examined under a variety of conditions. As shown in entries 1˜4 in Table 2, the yield of indigoid dye in the supernatant versus precipitate reversed as the concentration of 46 was decreased from 300 to 10 μM, although the total yields were in the range 17-29%. While the reactions in entries 1˜4 were carried out in phosphate buffer containing NaCl (0.05 M), those of entries 5 and 6 (with 300 and 50 μM of 46, respectively) were conducted in NaCl-free phosphate buffer. The use of NaCl-free phosphate buffer facilitated extraction of the indigoid dye in the supernatant for analysis.\nThe time course of the oligomerization was examined under the reaction conditions listed in entry 5 of Table 2, with 300 μM of 46. Noticeable changes include observation of blue clouding and color deepening at 20 min. Centrifugation enabled isolation of the precipitate. […] The absorption spectrum of the precipitate was examined in DMF/DMSO (9:1) and compared with that of the extracted supernatant (in DMF) and 43 (in DMF) (FIG. 10D). […]",
  "data": [
    {"smiles": "O=S(=O)([O-])CCC[N+]1(CCCO)CCN(c2nc(OCCOCCOCCOc3c(Br)cc4[nH]cc(O[C@@H]5O[C@H](CO)[C@@H](O)[C@H](O)[C@H]5O)c4c3Br)nc(OCCOCCOCCOc3c(Br)cc4[nH]cc(O[C@@H]5O[C@H](CO)[C@@H](O)[C@H](O)[C@H]5O)c4c3Br)n2)CC1", "note": "[compound 46]", "values": [
      {"measurement": "particle size of precipitate by DLS (number mean)", "value": "~680", "unit": "nm"}
    ]}
  ]
}
